Consider six substances from patent publication US20210169993A1, “TREATMENT OF A SUBTYPE OF ASD” (STALICLA SA, priority 2017, published 2021).

The test system of the test is ASD phenotype 1 lymphoblastoid cell lines. Description: NADH production in Phenotype Mammalian MicroArrays (PM-M, Biolog), ASD phenotype 1 cells. It is filed as cell-based, human. The conditions noted are these: FIG. 1 (AUC) and Table 1 (endpoint absorbance). As to the method: From all subjects, blood samples were collected and lymphoblastoid cell lines generated. Briefly, tubes containing anticoagulant citrate dextrose (ACD) were used to collect blood samples via venipuncture, in order to ensure that the blood cells remained metabolically active. The tubes were kept at room temperature and processed within 24 hours.
Cell lines were obtained by immortalization of lymphocytes from blood samples using Epstein-Barr virus.
Energy production of cells was measured using commercially available Phenotype Mammalian MicroArrays (PM-Ms, Biolog, Hayward, Calif., USA).
The compound in each well was designed to be used by the cells, either as the sole energy source or as the metabolic effector influencing the utilization of an energy source (α-D-glucose) added in the cell suspension. […] Before plating, cell viability and number were assessed utilizing a BioRad cell counter and a trypan blue dye. The concentration of live cells required for plating was 4×10^5 cells/mL, corresponding to 20,000 cells per well in a volume of 50 μL. […] Cells were incubated for 48 h at 37° C. in 5% CO2, using the modified Biolog IF-M1 medium.
The Biolog IF-M1 medium was modified for plates PM-M1 to M4 by adding the following to 100 mL of Biolog IF-M1: 1.1 mL of 100× penicillin/streptomycin solution, 0.16 mL of 200 mM glutamine (final concentration 0.3 mM), and 5.3 mL of Fetal Bovine Serum (FBS, final concentration 5%). For plates PM-M5 to M8, 5.5 mM α-D-glucose will be added in place of FBS.
During the 48-hour incubation, the only energy source the cells had was the chemical in the well. After this first incubation, Biolog Redox Dye Mix MB was added (10 μL/well) and the plates were incubated under the same conditions for an additional 24 hours. As the cells metabolized the energy source, tetrazolium dye in the media was reduced, producing a purple color according to the amount of NADH generated.
For the last 24 hours of the experiment, the plates were incubated in the Omnilog system, which collects optical density readings every 15 minutes, generating 96 data-points for each well. The system also elaborated the kinetic curve for the metabolic reaction in each well and extrapolated parameters such as slope, highest point, endpoint, area under the curve (AUC), and lag.
At the end of the 24-hour incubation, the plates were analyzed utilizing a microplate reader with readings at 590 and 750 nm. The first value (A590) indicated the highest absorbance peak of the redox dye and the second value (A750) gave a measure of the background noise. The relative absorbance (A590-750) was calculated per well.
As to “FGF-1(aFGF): growth factor that selectively targets PI3K-Akt-mTOR by binding the receptor tyrosine kinase”, the “production of NADH in ASD phenotype 1 cells compared to TDs and non-phenotype 1 cells” value is given as “significantly reduced”.

Turning to IGF-I: insulin-like growth factor 1, the “production of NADH in ASD phenotype 1 cells compared to TDs and non-phenotype 1 cells” value is “no significant differences”.

For “PDGF-AB: platelet-derived growth factor AB”, the “production of NADH in ASD phenotype 1 cells compared to TDs and non-phenotype 1 cells” value is listed as “no significant differences”.

In the case of IL-6: Th1 cytokine, the “production of NADH in ASD phenotype 1 cells compared to TDs and non-phenotype 1 cells” value is on record as “significantly lower”.

IL-1beta: Th1 cytokine: the “production of NADH in ASD phenotype 1 cells compared to TDs and non-phenotype 1 cells” value is recorded as “significantly lower”.

With “hGH (Somatotropin): growth factor that selectively targets PI3K-Akt-mTOR by binding the receptor tyrosine kinase”, the “production of NADH in ASD phenotype 1 cells compared to TDs and non-phenotype 1 cells” value is listed as “significantly reduced”.
